Results: paper PMC6259308, “Preparation and Properties of New Co-Crystals of Ibandronate with Gluco- or Galactopyranoside Derivatives” (Molecules, 2010)

Legend:
[1] = In vitro screening of absorption (PAMPA experiments); type: in vitro ADME
Procedure: The permeability of ibandronate (as a control sample) and samples 1-3, 6 and 7 was tested. To retain interactions of both components in the solution it is recommended to increase the concentration of the counterion in the applied mixture. Therefore samples 1-3, 6 and 7 with the addition of sixfold quantity of phenyl-β-D-galactopyranoside to the co-crystal solution were also evaluated.
The permeability of generated co-crystals was evaluated in vitro, using a vertical PAMPA (Parallel Artificial Membrane Permeability Assay) system (BD GentestTMPre-Coated PAMPA Plate System, 96 wells, http://www.bdbeurope.com). The donor samples were prepared by dissolving the tested potential co-crystals in 0.01 M HCl, and than pH was adjusted by bicarbonate buffer to pH 7.4. The control sample was prepared in the same manner from ibandronate standards. A carbonate buffer saline (physiological solution) with pH 7.4 was used as a receptor phase. About 0.5 h before the experiment the PAMPA system was taken out from the freezer and warmed up to the ambient temperature. The receptor phase (200 μL/well) was pipetted into the upper wells. The donor phase was pipetted into the lower ones (300 μL/well). After the incubation time (5 h) 10 μL of the acceptor phase was taken from each well and mixed with physiological solution (990 μL). At least five determinations were performed. […]

[2] = cited from earlier work

## CCCCCN(C)CCC(O)(P(=O)([O-])O)P(=O)(O)O.[Na+] [IBN monosodium salt, sodium hydrogen {1-hydroxy-3-[methyl(pentyl)amino]-1-phosphonopropyl}phosphonate]
[1]; PAMPA, pH 7.4, 5 h
  Absorption in PAMPA (in words, relative to ibandronate control): highest absorption
[1]; donor and receptor phase pH 7.4, incubation 5 h, calculated from 5 experiments, samples 1a-7a with sixfold quantity of phenyl-β-D-galactopyranoside added to the co-crystal solution
  Concentration in acceptor solutions of PAMPA plates, Conc.: 2400 ng/mL
[2]; organic solvents
  Solubility in organic solvents: practically insoluble
[2]; water
  Solubility in water: freely soluble
